Test: ability of solvents and dispersion mediums to dissolve the therapeutic substance (sirolimus)
Format: physicochemical
Method: Solution 524 is a homogeneous mixture in which therapeutic substance 112 dissolves within a solvent or a solvent mixture. In one embodiment, solution 524 includes a high-capacity solvent 528 which is an organic solvent that has a high capacity to dissolve therapeutic substance 112. High capacity as utilized herein is defined as an ability to dissolve therapeutic substance 112 at concentrations greater than 500 mg of substance per milliliter of solvent. Examples of high capacity drug dissolving solvents for sirolimus and similar substances include but are not limited to tetrahydrofuran (THF), di-chloromethane (DCM), chloroform, and di-methyl-sulfoxide (DMSO). In addition to the high-capacity solvent, solution 524 may include an excipient 526 in order to assist in drug elution. In one embodiment, excipient 526 may be a surfactant such as but not limited to sorbitan fatty acid esters such as sorbitan monooleate and sorbitan monolaurate, polysorbates such as polysorbate 20, polysorbate 60, and polysorbate 80, cyclodextrins such as 2-hydroxypropyl-beta-cyclodextrin and 2,6-di-O-methyl-beta-cyclodextrin, sodium dodecyl sulfate, octyl glucoside, and low molecular weight poly(ethylene glycol)s. In another embodiment, excipient 526 may be a hydrophilic agent such as but not limited to salts such as sodium chloride and other materials such as urea, citric acid, and ascorbic acid. […]

CO[C@H]1C[C@@H]2CC[C@@H](C)[C@@](O)(O2)C(=O)C(=O)N2CCCC[C@H]2C(=O)O[C@H]([C@H](C)C[C@@H]2CC[C@@H](O)[C@H](OC)C2)CC(=O)[C@H](C)/C=C(\C)[C@@H](O)[C@@H](OC)C(=O)[C@H](C)C[C@H](C)/C=C/C=C/C=C/1C [sirolimus]
solubility in hexane (hexane (precipitator solvent)): insoluble | solubility in water (water): insoluble

Reference: US8381774B2, “Methods for loading a drug eluting medical device” (Medtronic Vascular, Inc., priority 2009, dated 2013)
